Test results published in US20230263822A1, “MODULATION OF FACTOR 11 EXPRESSION” (Ionis Pharmaceuticals, Inc., priority 2008, published 2023).
Strand notation (5' to 3'): a small letter for the sugar, then the base; units joined by * are phosphorothioate-linked, units joined directly phosphodiester-linked; [ ] holds rarer units or linkages, { } end groups; capitals alone tell only the bases. e = 2'-O-(2-methoxyethyl) (MOE); [5mC] = 5-methylcytosine; d = 2'-deoxy (DNA)

Columns and labels:
[1] = Hematology assays in cynomolgus monkeys (Example 46); assay type: in vivo
Description: (§1) Groups, each consisting of two male and two female monkeys, were injected subcutaneously with 25 mg/kg of ISIS 416850, ISIS 449709, ISIS 445522, ISIS 449710, ISIS 449707, ISIS 449711, ISIS 449708, 416858, and ISIS 445531. Antisense oligonucleotide was administered to the monkeys at 25 mg/kg three times per week for week 1 and 25 mg/kg twice per week for weeks 2 to 8. A control group, consisting of two male and two female monkeys was injected subcutaneously with PBS according to the same dosing regimen. Body weights were taken 14 days and 7 days before the start of treatment and were then measured weekly throughout the treatment period. Blood samples were collected 14 days and 5 days before the start of treatment and subsequently several times during the dosing regimen for PT and aPTT measurements, and measurement of various hematologic factors. On day 55, the monkeys were euthanized by exsanguination while under deep anesthesia, and organs harvested for further analysis.

blood coagulation = assay: PT and aPTT assay in cynomolgus monkeys (Example 46); assay type: in vivo; conditions: for PT ratio (INR) / aPTT ratio relative to PBS group: platelet poor plasma, relative to PBS group
Description: as §1
PT and aPTT were measured using platelet poor plasma (PPP) from […] treated with ISIS oligonucleotides. PT and aPTT values are provided in Tables 148 and 149 and are reported as International Normalized Ratio (INR) values. INR values for PT and aPTT were determined by dividing the PT or aPTT value for each experimental group by the PT or aPTT for the PBS treated group. This ratio was then raised to the power of the International Sensitivity Index (ISI) of the tissue factor used. […] Therefore, antisense reduction of Factor 11 with these ISIS oligonucleotides is useful for inhibiting the formation of a thrombus or clot in response to an abnormal vessel wall, but not in response to tissue injury.

## ISIS 445522: 5-8-5 or 6-8-6 MOE microwalk gapmer (Table 44) (antisense eG*e[5mC]*eA*e[5mC]*eA*dG*dT*dT*dT*d[5mC]*dT*dG*dG*e[5mC]*eA*eG*eG*e[5mC])
[1]; Day 17
  HCT: 41%
  MCH: 22.8 pg
  MCHC: 30.9 g/dL
  MCV: 74 fL
  RBC count: 5.6e+06 µL⁻¹
  WBC count: 11000 µL⁻¹
  hemoglobin content: 12.7 g/dL
  monocytes: 3.6%
  neutrophils: 81%
  platelet count: 521 ×100/μL
[1]; Day 31
  HCT: 43%
  MCH: 22.4 pg
  MCHC: 30.0 g/dL
  MCV: 75 fL
  RBC count: 5.8e+06 µL⁻¹
  WBC count: 13000 µL⁻¹
  hemoglobin content: 12.9 g/dL
  monocytes: 3.9%
  neutrophils: 66%
  platelet count: 425 ×100/μL
[1]; Day 45
  HCT: 41%
  MCH: 22.4 pg
  MCHC: 30.7 g/dL
  MCV: 73 fL
  RBC count: 5.7e+06 µL⁻¹
  WBC count: 10000 µL⁻¹
  hemoglobin content: 12.6 g/dL
  monocytes: 4.4%
  neutrophils: 69%
  platelet count: 403 ×100/μL
[1]; Day 55
  HCT: 39%
  MCH: 22.2 pg
  MCHC: 31.0 g/dL
  MCV: 72 fL
  RBC count: 5.4e+06 µL⁻¹
  WBC count: 11000 µL⁻¹
  hemoglobin content: 12.0 g/dL
  monocytes: 3.0%
  neutrophils: 125%
  platelet count: 333 ×100/μL
[1]; Day-5
  HCT: 42%
  MCH: 22.5 pg
  MCHC: 30.4 g/dL
  MCV: 74 fL
  RBC count: 5.6e+06 µL⁻¹
  WBC count: 9000 µL⁻¹
  hemoglobin content: 12.7 g/dL
  monocytes: 2.3%
  neutrophils: 84%
  platelet count: 512 ×100/μL
[1]; Day-14
  HCT: 42%
  MCH: 22.6 pg
  MCHC: 31.4 g/dL
  MCV: 72 fL
  RBC count: 5.9e+06 µL⁻¹
  WBC count: 10000 µL⁻¹
  hemoglobin content: 13.3 g/dL
  monocytes: 2.1%
  neutrophils: 61%
  platelet count: 433 ×100/μL
Blood coagulation; Day 10
  PT ratio (INR): 0.95
  aPTT ratio relative to PBS group: 1.06
Blood coagulation; Day 17
  PT ratio (INR): 0.96
  aPTT ratio relative to PBS group: 1.10
Blood coagulation; Day 24
  PT ratio (INR): 0.94
  aPTT ratio relative to PBS group: 1.14
Blood coagulation; Day 31
  PT ratio (INR): 0.96
  aPTT ratio relative to PBS group: 1.25
Blood coagulation; Day 38
  PT ratio (INR): 0.97
  aPTT ratio relative to PBS group: 1.32
Blood coagulation; Day 45
  PT ratio (INR): 0.96
  aPTT ratio relative to PBS group: 1.39
Blood coagulation; Day 52
  PT ratio (INR): 0.98
  aPTT ratio relative to PBS group: 1.39
Blood coagulation; Day 55
  PT ratio (INR): 1.01
  aPTT ratio relative to PBS group: 1.42
Blood coagulation; Day −5
  PT ratio (INR): 0.94
  aPTT ratio relative to PBS group: 0.91
Blood coagulation; Day −14
  PT ratio (INR): 1.00
  aPTT ratio relative to PBS group: 0.96
Blood coagulation; cynomolgus monkeys, 25 mg/kg
  aPTT: significantly prolonged

## ISIS 445531: 5-8-5 or 6-8-6 MOE microwalk gapmer (Table 44) (antisense eG*eG*e[5mC]*eA*eT*dT*dG*dG*dT*dG*d[5mC]*dA*d[5mC]*eA*eG*eT*eT*eT)
[1]; Day 17
  HCT: 43%
  MCH: 22.1 pg
  MCHC: 29.5 g/dL
  MCV: 75 fL
  RBC count: 5.8e+06 µL⁻¹
  WBC count: 17000 µL⁻¹
  hemoglobin content: 12.7 g/dL
  monocytes: 3.4%
  neutrophils: 85%
  platelet count: 380 ×100/μL
[1]; Day 31
  HCT: 41%
  MCH: 22.0 pg
  MCHC: 29.7 g/dL
  MCV: 75 fL
  RBC count: 5.6e+06 µL⁻¹
  WBC count: 17000 µL⁻¹
  hemoglobin content: 12.3 g/dL
  monocytes: 4.1%
  neutrophils: 116%
  platelet count: 376 ×100/μL
[1]; Day 45
  HCT: 41%
  MCH: 21.6 pg
  MCHC: 29.0 g/dL
  MCV: 75 fL
  RBC count: 5.5e+06 µL⁻¹
  WBC count: 20000 µL⁻¹
  hemoglobin content: 12.0 g/dL
  monocytes: 4.4%
  neutrophils: 93%
  platelet count: 345 ×100/μL
[1]; Day 55
  HCT: 41%
  MCH: 21.7 pg
  MCHC: 29.6 g/dL
  MCV: 74 fL
  RBC count: 5.6e+06 µL⁻¹
  WBC count: 15000 µL⁻¹
  hemoglobin content: 12.1 g/dL
  monocytes: 4.1%
  neutrophils: 91%
  platelet count: 319 ×100/μL
[1]; Day-5
  HCT: 42%
  MCH: 22.2 pg
  MCHC: 30.0 g/dL
  MCV: 74 fL
  RBC count: 5.7e+06 µL⁻¹
  WBC count: 15000 µL⁻¹
  hemoglobin content: 12.6 g/dL
  monocytes: 2.2%
  neutrophils: 80%
  platelet count: 416 ×100/μL
[1]; Day-14
  HCT: 41%
  MCH: 22.2 pg
  MCHC: 30.9 g/dL
  MCV: 72 fL
  RBC count: 5.7e+06 µL⁻¹
  WBC count: 20000 µL⁻¹
  hemoglobin content: 12.6 g/dL
  monocytes: 1.3%
  neutrophils: 60%
  platelet count: 379 ×100/μL
Blood coagulation; Day 10
  PT ratio (INR): 1.00
  aPTT ratio relative to PBS group: 0.95
Blood coagulation; Day 17
  PT ratio (INR): 1.06
  aPTT ratio relative to PBS group: 1.05
Blood coagulation; Day 24
  PT ratio (INR): 1.02
  aPTT ratio relative to PBS group: 1.00
Blood coagulation; Day 31
  PT ratio (INR): 1.04
  aPTT ratio relative to PBS group: 1.07
Blood coagulation; Day 38
  PT ratio (INR): 1.03
  aPTT ratio relative to PBS group: 1.06
Blood coagulation; Day 45
  PT ratio (INR): 1.01
  aPTT ratio relative to PBS group: 1.13
Blood coagulation; Day 52
  PT ratio (INR): 1.04
  aPTT ratio relative to PBS group: 1.15
Blood coagulation; Day 55
  PT ratio (INR): 1.06
  aPTT ratio relative to PBS group: 1.19
Blood coagulation; Day −5
  PT ratio (INR): 1.00
  aPTT ratio relative to PBS group: 0.89
Blood coagulation; Day −14
  PT ratio (INR): 1.06
  aPTT ratio relative to PBS group: 1.00
